Experimental data as given in patent US20070191364A1, “AMINOPIPERIDINE DERIVATIVES, PREPARATION THEREOF AND THERAPEUTIC USE THEREOF” (SANOFI-AVENTIS, priority 2004, published 2007).
pEC50, pIC50: −log10 of the molar value. Counter-ions that a name gives are not always drawn.

Experiments:
human MC4 receptor [1] = target: T1, human MC4 receptor (Homo sapiens, UniProt P32245); experiment: Functional agonist assay: cAMP formation in CHO-K1 cells; format: cell-based; details: 1 hour incubation, read-out: EC50 with respect to the MC4 receptor
T1 construct: host or cells: CHO-K1
Experimental: (§1) A functional assay is used to differentiate between the agonist activity and the antagonist activity. For this, the formation of cyclic adenosine monophosphate (cAMP) generated by activation of the MC3 receptor or of the MC4 receptor is assayed.
CHO-K1 cells, expressing the human MC4 receptor at a moderate density (Euroscreen), are seeded into DMEM/Nutrient Mix F12 culture medium (Gibco/BR1) containing 10% of foetal calf serum, 0.5% sodium pyruvate, 1% L-glutamine, 1% non-essential amino acids, 200 mg/l hygromycin B and 0.5% PenStrep, these products being provided by Gibco/BR1, except the calf serum (Biowhittaker) and hygromycin B (Sigma).
(§2) The compounds to be tested (diluted in 10% DMSO), in an amount of 10 μl at a concentration of 10 times the final concentration, are added to the plates of cells (final volume=100 μl/well). After incubation for 1 hour (37° C., 5% CO2), the amount of cAMP is assayed using Tropix kits (Appelera) according to the supplier's documentation. The intrinsic activity of the compounds is calculated by comparing the stimulation of cAMP by these compounds to the stimulation induced by 30 nM of NDP[…]MSH (maximum of 100%). The EC50 value for the compounds corresponds to the concentration which produces 50% of the maximum stimulation obtained with this compound.

human MC3 receptor = target: T2, human MC3 receptor (Homo sapiens, UniProt P41968); experiment: Functional agonist assay: cAMP formation in CHO(dhfr-) cells; format: cell-based; details: 1 hour incubation, read-out: EC50 with respect to the MC3 receptor
T2 construct: expressed in transfected cells; host or cells: CHO(dhfr-)
Experimental: as §1
CHO(dhfr-) cells expressing the human MC3 receptor are seeded into MEM Eagle culture medium (Sigma) containing 10% of dialysed calf serum, 1% L-glutamine, 1% sodium pyruvate, 20 mg/500 ml L-proline, 0.3 mg/ml Geneticin and 0.5% PenStrep, these products being provided by Gibco/BR1, except for the dialysed calf serum (Cambrex) and the L-proline (Sigma).
as §2

human MC4 receptor [2] = target: T1, human MC4 receptor; experiment: Affinity assay: displacement of [125I]-[Nle4,D-Phe7]-α-MSH binding to membranes of CHO-K1 cells (SPA); details: radioligand displacement, 100 pM [125I]-NDP-α-MSH, 6 h; read-out: IC50 with respect to the MC4 receptor
Experimental: This affinity assay is carried out by measuring the binding of [^125I]-[Nle^4-D-Phe^7]-[…]-MSH to cell membranes. The displacement of this radioligand is used to identify inhibitors of the specific binding to recombinant melanocortin receptors.
For this assay, membranes prepared from CHO-K1 cells expressing the human MC4 receptor at high density (Euroscreen) or membranes, that were purchased (Perkin Elmer Life Sciences, Receptor Biology), of HEK-293 cells expressing hMC3 receptors were used. CHO-K1 cells transfected with the hMC4 receptor gene (Euroscreen) are seeded into DMEM/Nutrient Mix F12 culture medium containing 10% foetal calf serum (Biowhittaker), 1% sodium pyruvate, 1% L-glutamine, 1% non-essential amino acids, 0.4 mg/ml geneticin (G418) and 0.5% PenStrep, these products being provided by Gibco/BR1, except the calf serum. At 80% confluency, the cells are scraped off and the cell pellets are frozen at −80° C. […]
[^125I]-[Nle^4, D-Phe^7]-[…]-MSH is diluted in binding buffer+0.2% BSA. […] The nonspecific binding is defined by NDP-[…]MSH at 10^−7 M. The total binding is measured by the number of counts per minute in the presence of the radioligand alone. […]

T1 sequence (P32245 whole entry): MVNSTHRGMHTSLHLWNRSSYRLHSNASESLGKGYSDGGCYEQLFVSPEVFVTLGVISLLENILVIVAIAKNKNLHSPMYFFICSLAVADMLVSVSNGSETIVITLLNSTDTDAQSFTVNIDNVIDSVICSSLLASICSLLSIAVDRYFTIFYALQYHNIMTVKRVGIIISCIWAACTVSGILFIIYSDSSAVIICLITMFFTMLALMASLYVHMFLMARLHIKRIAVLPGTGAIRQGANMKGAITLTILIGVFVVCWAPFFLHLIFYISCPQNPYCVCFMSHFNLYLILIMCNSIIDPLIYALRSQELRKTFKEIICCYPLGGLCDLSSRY
T2 sequence (P41968 whole entry): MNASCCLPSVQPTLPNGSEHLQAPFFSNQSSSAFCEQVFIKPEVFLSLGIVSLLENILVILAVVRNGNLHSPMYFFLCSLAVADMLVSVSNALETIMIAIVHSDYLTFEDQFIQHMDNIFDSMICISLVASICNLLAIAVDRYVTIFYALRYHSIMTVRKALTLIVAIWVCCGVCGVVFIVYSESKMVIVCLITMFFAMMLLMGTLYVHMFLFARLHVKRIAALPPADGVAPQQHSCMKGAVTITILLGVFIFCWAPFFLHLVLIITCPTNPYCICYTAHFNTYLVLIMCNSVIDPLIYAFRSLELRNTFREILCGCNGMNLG

Row | SMILES | melting point [°C] | pEC50 (human MC4 receptor [1]) | pEC50 (human MC3 receptor) | pIC50 (human MC4 receptor [2])
1 | CCN(CC)C(=O)N(C1CCCCC1)C1CCN(C(=O)[C@@H](Cc2ccc(Cl)cc2)NC2CCNCC2)CC1 (as salt: HCl) [Compound 1, N-[1-(4-chloro-N-piperidin-4-yl-D-phenylalanyl)piperidin-4-yl]-N-cyclohexyl-N′,N′-diethylurea] | > 220 | – | – | –
2 | CCN(CC)C(=O)N(C1CCCCC1)C1CCN(C(=O)[C@@H](Cc2ccc(Cl)cc2)NC2CCC(N)CC2)CC1 (stereo partly drawn) (as salt: HCl) [Compound 2, N-{1-[N-(4-aminocyclohexyl)-4-chloro-D-phenylalanyl]piperidin-4-yl}-N-cyclohexyl-N′,N′-diethylurea hydrochloride] | 195 | – | – | –
3 | CCN(CC)C(=O)N(C1CCCCC1)C1CCN(C(=O)[C@@H](Cc2ccc(Cl)cc2)NC2CCNCC2)CC1 [Compound 1, N-[1-(4-chloro-N-piperidin-4-yl-D-phenylalanyl)piperidin-4-yl]-N-cyclohexyl-N′,N′-diethylurea] | – | 7.10 | 6.23 | –
4 | CCN(CC)C(=O)N(C1CCCCC1)C1CCN(C(=O)[C@@H](Cc2ccc(Cl)cc2)NC2CCC(N)CC2)CC1 (stereo partly drawn) [Compound 2, N-{1-[N-(4-aminocyclohexyl)-4-chloro-D-phenylalanyl]piperidin-4-yl}-N-cyclohexyl-N′,N′-diethylurea hydrochloride] | – | 7.52 | 6.43 | 6.52
